Experimental data taken from BindingDB's records for doi:10.1021/jm00102a002 (Bristol-Myers Squibb, 1993).

Experiments:
D(2) dopamine receptor = D(2) dopamine receptor (Rattus norvegicus, UniProt P61169); assay: ChEBML_61741
From the text: Inhibitory concentration against radioligand [3H]spiperone binding to rat striatal Dopamine receptor D2

[1] = molecular target: Serotonin 2 (5-HT2) receptor (Rattus norvegicus, UniProt P08909+P14842+P30994); assay: ChEBML_1935
From the text: Inhibitory concentration against radioligand [3H]spiperone binding to 5-hydroxytryptamine 2 receptor in rat cortex

Sequence of D(2) dopamine receptor (P61169 whole entry): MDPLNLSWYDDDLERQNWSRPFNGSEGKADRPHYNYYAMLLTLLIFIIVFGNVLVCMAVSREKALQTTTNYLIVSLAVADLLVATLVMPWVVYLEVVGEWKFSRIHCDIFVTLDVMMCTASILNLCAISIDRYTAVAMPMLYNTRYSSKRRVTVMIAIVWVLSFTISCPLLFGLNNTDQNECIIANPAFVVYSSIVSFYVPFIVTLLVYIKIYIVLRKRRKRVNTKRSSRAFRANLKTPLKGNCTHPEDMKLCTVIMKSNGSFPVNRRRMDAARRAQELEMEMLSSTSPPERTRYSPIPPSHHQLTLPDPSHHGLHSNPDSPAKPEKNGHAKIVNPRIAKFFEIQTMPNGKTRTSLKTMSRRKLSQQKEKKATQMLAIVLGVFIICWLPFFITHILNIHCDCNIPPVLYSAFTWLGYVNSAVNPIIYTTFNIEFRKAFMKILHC
Sequence of Serotonin 2 (5-HT2) receptor (P14842 whole entry): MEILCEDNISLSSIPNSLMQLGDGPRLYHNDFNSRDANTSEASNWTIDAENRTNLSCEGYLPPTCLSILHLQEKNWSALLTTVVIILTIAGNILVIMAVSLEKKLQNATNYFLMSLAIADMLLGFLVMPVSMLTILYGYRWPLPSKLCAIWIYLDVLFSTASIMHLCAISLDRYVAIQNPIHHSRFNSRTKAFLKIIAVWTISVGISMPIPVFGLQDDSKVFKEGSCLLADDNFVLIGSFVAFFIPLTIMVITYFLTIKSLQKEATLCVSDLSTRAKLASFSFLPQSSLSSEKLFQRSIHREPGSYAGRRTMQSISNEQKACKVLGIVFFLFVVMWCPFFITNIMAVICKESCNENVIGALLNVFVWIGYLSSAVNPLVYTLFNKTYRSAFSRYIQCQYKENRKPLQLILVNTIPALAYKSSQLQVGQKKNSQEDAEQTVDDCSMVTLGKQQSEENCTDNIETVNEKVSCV
Sequence of Serotonin 2 (5-HT2) receptor (P08909 whole entry): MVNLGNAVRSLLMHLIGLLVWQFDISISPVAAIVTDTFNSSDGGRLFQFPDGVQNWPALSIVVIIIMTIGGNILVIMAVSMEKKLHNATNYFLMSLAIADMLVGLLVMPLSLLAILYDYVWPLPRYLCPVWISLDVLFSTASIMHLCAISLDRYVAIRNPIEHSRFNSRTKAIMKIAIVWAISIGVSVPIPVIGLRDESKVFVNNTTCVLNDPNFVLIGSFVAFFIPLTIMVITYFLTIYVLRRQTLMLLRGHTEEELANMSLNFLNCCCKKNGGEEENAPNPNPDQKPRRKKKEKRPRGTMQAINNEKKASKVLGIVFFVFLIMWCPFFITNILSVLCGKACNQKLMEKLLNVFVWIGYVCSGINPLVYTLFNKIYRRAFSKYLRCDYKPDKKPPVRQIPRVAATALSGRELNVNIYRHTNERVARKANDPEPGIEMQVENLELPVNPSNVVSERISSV
Sequence of Serotonin 2 (5-HT2) receptor (P30994 whole entry): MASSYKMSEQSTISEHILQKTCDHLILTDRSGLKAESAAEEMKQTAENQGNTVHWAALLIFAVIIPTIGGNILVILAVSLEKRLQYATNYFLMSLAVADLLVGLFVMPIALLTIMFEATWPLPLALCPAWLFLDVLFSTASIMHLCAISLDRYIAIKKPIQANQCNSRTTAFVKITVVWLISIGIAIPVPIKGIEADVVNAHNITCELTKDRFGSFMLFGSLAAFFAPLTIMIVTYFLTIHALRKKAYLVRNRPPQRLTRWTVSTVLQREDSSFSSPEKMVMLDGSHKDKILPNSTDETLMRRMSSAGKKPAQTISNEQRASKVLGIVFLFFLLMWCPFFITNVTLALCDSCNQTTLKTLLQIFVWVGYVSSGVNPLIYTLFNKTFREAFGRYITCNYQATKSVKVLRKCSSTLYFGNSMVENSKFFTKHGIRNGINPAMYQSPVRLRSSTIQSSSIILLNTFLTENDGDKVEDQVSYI

- IC50 (D(2) dopamine receptor): 6.43 µM
- IC50 [1]: 1.7 µM
SMILES: OC(CCCN1CCN(c2ncc(F)cn2)CC1)c1ccc(F)cc1 (configuration not stated) [1-(4-fluorophenyl)-4-(4-(5-fluoropyrimidin-2-yl)piperazin-1-yl)butan-1-ol]
